Six compounds from article PMC9481563, “Structural insights into the pSer/pThr dependent regulation of the SHP2 tyrosine phosphatase in insulin and CD28 signaling” (Nature Communications, 2022) can be followed below.

One may read the Kd as the free concentration of one partner at which half of the binding sites on the other are occupied at equilibrium, for simple one-to-one binding.

The target of experiment [1] is T1, PTPRε first phosphatase domain, C335S (Homo sapiens, UniProt P23469, C335S).
T1 construct: PTPRε (P23469 first domain: 107–399); MBP; made in house; host or cells: E. coli BL21 (DE3)
The experiment is described as follows: biochemical. Format: binding. The conditions noted are these: competitive FP titration vs CF-ppIRS1 100 nM, protein fixed, unlabelled peptide varied; n = 3 technical replicates. An excerpt: The two SH2 domains of PI3KR1 (UniProt P27986; nSH2: 321−433 cSH2: 614–724) were cloned from HEK293T cDNA pool, and subsequently ligated into a modified pET vector encoding maltose binding protein (MBP) tag on the N-terminal and a hexa-His tag on the C-terminal end of the construct. Similarly, the catalytic, tyrosine phosphatase domains of PTPRε (P23469 first domain: 107–399) and PTP1B (P18031; 1–229) were cloned from a HEK293T cDNA pool, and inserted into a pBH4 vector encoding an N-terminal His6 tag (for the final binding experiments, an MBP-tagged version of PTPRε was employed). […] Wild-type C-terminal FLAG-tagged human IRS1 was cloned between HindIII-NotI sites of pcDNA3.1(+) vector (#V79020 Invitrogen, Waltham MA USA). Ser/Ala mutant IRS1 was generated by replacing the region of S616/S636/S666/S736 positions with a cassette carrying S616A/S636A/S666A/S736A mutations. All constructs were validated by complete Sanger sequencing before protein expression and purification. The oligonucleotide sequences used are shown on Supplementary table 4.
Fluorescence polarization was always measured in triplicates, on black Corning low volume round bottom 384-well plates (with 10 ul volumes), using a BioTek Cytatation 5 reader, with the green fluorescent protein (GFP) cube filter set (ex: 485/20, em: 528/20, gain: 50, height: 7.5). Fluorescence polarization data was evaluated on Origin 2018. The dissociation constants (Kd) were determined by using the appropriate quadratic and cubic equations inserted as a user-defined function and applying nonlinear fit until convergence. The fitting formulae are shown at Supplementary note 1. Kd ratio distributions for Fig. 6 were calculated using a Monte-Carlo approach (Supplementary note 2).
(§1) Supplementary note 1. Curve fitting of fluorescence polarization (FP) measurements.
(§2) To evaluate polarization values from direct and competitive titrations, we used the following fitting formulae in Origin 2018, as detailed below.
(§3) Direct titration curves were fitted according to the following formula: […]
(§4) Where Imin is the minimal anisotropy, Imax is the (asymptotically estimated) maximal intensity. K0 is the starting concentration of the protein, while T0 is the (fixed) concentration of the labelled peptide and Kd is the dissociation constant.
(§5) Competitive titration curves were fitted with a different formula (In addition to those defined above, constants KdT KdB B0 T0 and D0 here refer to the Kd derived from the direct titration, the unknown Kd of the analyte, the labelled peptide concentration, the competitor peptide concentration as well as the protein concentration, respectively).
(§6) The ± sign refers to two different scenarios, depending on the sign of discriminant (KdT > KdB or […]). For unknown analytes, the choice of sign is not arbitrary, as the fitting will not converge unless the appropriate formula is chosen: […]
(§7) Where A, B and C correspond to the following expressions: […]

The target of experiment [2] is T2, inactive SHP2 catalytic domain Flapmut (H426F) (Homo sapiens, UniProt Q06124, C459S/H426F).
T2 construct: SHP2 H425F (Flapmut); 219-528 + C459S; His6 (N); made in house; host or cells: E. coli BL21 (DE3)
T2 sequence (Q06124 219-528 H426F/C459S): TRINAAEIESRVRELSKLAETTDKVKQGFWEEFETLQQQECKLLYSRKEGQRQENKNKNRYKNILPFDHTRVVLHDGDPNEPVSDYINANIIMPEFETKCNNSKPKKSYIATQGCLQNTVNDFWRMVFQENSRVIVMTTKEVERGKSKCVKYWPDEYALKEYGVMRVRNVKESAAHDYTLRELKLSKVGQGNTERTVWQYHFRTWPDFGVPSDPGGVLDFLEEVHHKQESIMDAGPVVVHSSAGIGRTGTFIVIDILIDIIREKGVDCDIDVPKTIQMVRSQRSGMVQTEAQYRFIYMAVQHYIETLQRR
In words: Fluorescence polarization titrations, SHP2 Flapmut. The note with it: competitive FP titration vs CF-ppIRS1 100 nM, protein fixed; n = 3 technical replicates. The class given is binding.
From the text: The two SH2 domains of PI3KR1 (UniProt P27986; nSH2: 321−433 cSH2: 614–724) were cloned from HEK293T cDNA pool, and subsequently ligated into a modified pET vector encoding maltose binding protein (MBP) tag on the N-terminal and a hexa-His tag on the C-terminal end of the construct. Similarly, the catalytic, tyrosine phosphatase domains of PTPRε (P23469 first domain: 107–399) and PTP1B (P18031; 1–229) were cloned from a HEK293T cDNA pool, and inserted into a pBH4 vector encoding an N-terminal His6 tag (for the final binding experiments, an MBP-tagged version of PTPRε was employed). […] Surface mutants of SHP2 were constructed from the SHP2-C459S plasmid, using the QuickChange protocol. The D425A and H426A catalytic site mutants and all enzymatically active surface mutants were generated similarly, but from the plasmid encoding the wild-type catalytic domain of SHP2. Wild-type C-terminal FLAG-tagged human IRS1 was cloned between HindIII-NotI sites of pcDNA3.1(+) vector (#V79020 Invitrogen, Waltham MA USA). Ser/Ala mutant IRS1 was generated by replacing the region of S616/S636/S666/S736 positions with a cassette carrying S616A/S636A/S666A/S736A mutations. All constructs were validated by complete Sanger sequencing before protein expression and purification. The oligonucleotide sequences used are shown on Supplementary table 4.
Fluorescence polarization (FP) assays were performed as follows: In direct titration experiments, protein concentration was varied in an 1/2 or 2/3 dilution series (90 µl protein+ 45 µl mix), while concentration of the reporter peptide (CF-ppIRS1) was kept constant at 100 nM. In competitive titrations, the labelled CF-ppIRS1 peptide and protein were both fixed (at 50–80% saturation) and the unlabelled competitor peptide concentration was varied. Fluorescence polarization was always measured in triplicates, on black Corning low volume round bottom 384-well plates (with 10 ul volumes), using a BioTek Cytatation 5 reader, with the green fluorescent protein (GFP) cube filter set (ex: 485/20, em: 528/20, gain: 50, height: 7.5). Fluorescence polarization data was evaluated on Origin 2018. The dissociation constants (Kd) were determined by using the appropriate quadratic and cubic equations inserted as a user-defined function and applying nonlinear fit until convergence. The fitting formulae are shown at Supplementary note 1. Kd ratio distributions for Fig. 6 were calculated using a Monte-Carlo approach (Supplementary note 2).
as §1, §2, §3, §4, §5, §6, §7
(In fluorescence polarisation assays a small probe gives low polarisation when free and higher when bound to something large.)

T1 sequence (P23469 107-399 C335S): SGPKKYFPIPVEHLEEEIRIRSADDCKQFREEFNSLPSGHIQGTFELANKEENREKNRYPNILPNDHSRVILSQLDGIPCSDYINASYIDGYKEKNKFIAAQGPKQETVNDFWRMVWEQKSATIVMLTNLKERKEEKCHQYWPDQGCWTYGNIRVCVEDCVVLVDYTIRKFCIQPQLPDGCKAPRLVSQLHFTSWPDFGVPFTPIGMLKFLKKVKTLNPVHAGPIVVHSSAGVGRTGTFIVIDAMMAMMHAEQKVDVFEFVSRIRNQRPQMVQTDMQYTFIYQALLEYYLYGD

In the case of `CSCC[C@H](NC(=O)[C@@H]1CCCN1C(=O)[C@H](CCSC)NC(=O)[C@H](Cc1ccc(OP(=O)(O)O)cc1)NC(=O)[C@H](CC(=O)O)NC(=O)CNC(=O)[C@H](CO)NC(=O)CNC(=O)[C@H](CCCCN)NC(=O)[C@H](CCCNC(=N)N)NC(=O)CN)C(=O)N[C@@H](COP(=O)(O)O)C(=O)N1CCC[C@H]1C(=O)N[C@@H](CCCCN)C(=O)N[C@@H](CO)C(=O)O` [ppIRS1], the equilibrium dissociation constant (Kd) is 16.5 ± 1.7 µM in experiment [1] and 3.89 ± 0.19 µM in experiment [2].
For the compound `CSCC[C@H](NC(=O)[C@@H]1CCCN1C(=O)[C@H](CCSC)NC(=O)[C@H](Cc1ccc(OP(=O)(O)O)cc1)NC(=O)[C@H](CC(=O)O)NC(=O)CNC(=O)[C@H](CO)NC(=O)CNC(=O)[C@H](CCCCN)NC(=O)[C@H](CCCNC(=N)N)NC(=O)CN)C(=O)N[C@@H](CO)C(=O)N1CCC[C@H]1C(=O)N[C@@H](CCCCN)C(=O)N[C@@H](CO)C(=O)O` [p0IRS1], the Kd in experiment [1] stood at 36 ± 2.44 µM; in experiment [2], 172 ± 4.89 µM.
Consider `CSCC[C@H](NC(=O)[C@H](Cc1ccc(OP(=O)(O)O)cc1)NC(=O)[C@H](CC(=O)O)NC(=O)[C@H](CO)NC(=O)[C@H](Cc1c[nH]cn1)NC(=O)[C@H](CC(C)C)NC(=O)[C@H](CC(C)C)NC(=O)[C@H](CCCNC(=N)N)NC(=O)[C@H](CO)NC(=O)[C@@H](N)CCCNC(=N)N)C(=O)N[C@@H](CC(N)=O)C(=O)N[C@@H](CCSC)C(=O)N[C@H](C(=O)N1CCC[C@H]1C(=O)N[C@@H](CCCNC(=N)N)C(=O)N[C@@H](CCCNC(=N)N)C(=O)O)[C@@H](C)OP(=O)(O)O` [ppCD28], for which the Kd in experiment [1] turned out to be 1.24 ± 0.08 µM; in experiment [2], 9.96 ± 0.47 µM.
The like results for `CSCC[C@H](NC(=O)[C@H](Cc1ccc(OP(=O)(O)O)cc1)NC(=O)[C@H](CC(=O)O)NC(=O)[C@H](CO)NC(=O)[C@H](Cc1c[nH]cn1)NC(=O)[C@H](CC(C)C)NC(=O)[C@H](CC(C)C)NC(=O)[C@H](CCCNC(=N)N)NC(=O)[C@H](CO)NC(=O)[C@@H](N)CCCNC(=N)N)C(=O)N[C@@H](CC(N)=O)C(=O)N[C@@H](CCSC)C(=O)N[C@H](C(=O)N1CCC[C@H]1C(=O)N[C@@H](CCCNC(=N)N)C(=O)N[C@@H](CCCNC(=N)N)C(=O)O)[C@@H](C)O` [p0CD28] were, in that order, 1.18 ± 0.1 µM and 63.7 ± 3.1 µM.
In the case of `CC[C@H](C)[C@H](NC(=O)[C@H](CC(N)=O)NC(=O)[C@@H](NC(=O)[C@H](Cc1ccc(OP(=O)(O)O)cc1)NC(=O)[C@H](CCC(=O)O)NC(=O)CNC(=O)[C@@H]1CCCN1C(=O)[C@H](CO)NC(=O)[C@H](CCCCN)NC(=O)[C@@H]1CCCN1C(=O)[C@@H](N)CCC(=O)O)C(C)C)C(=O)N[C@@H](CCC(=O)O)C(=O)N[C@@H](Cc1ccccc1)C(=O)O` [p0SRev-IRS1], in experiment [2], the Kd came out at 6.05 ± 0.29 µM.
Same read-out and setting: the result for `CC[C@H](C)[C@H](NC(=O)[C@H](CC(N)=O)NC(=O)[C@@H](NC(=O)[C@H](Cc1ccc(OP(=O)(O)O)cc1)NC(=O)[C@H](CCC(=O)O)NC(=O)CNC(=O)[C@@H]1CCCN1C(=O)[C@H](COP(=O)(O)O)NC(=O)[C@H](CCCCN)NC(=O)[C@@H]1CCCN1C(=O)[C@@H](N)CCC(=O)O)C(C)C)C(=O)N[C@@H](CCC(=O)O)C(=O)N[C@@H](Cc1ccccc1)C(=O)O` [ppSRev-IRS1] reads 0.54 ± 0.03 µM.
